# According to ChEMBL document CHEMBL2016443, “From ApoA1 upregulation to BET family bromodomain inhibition: discovery of I-BET151” (Bioorg Med Chem Lett, 2012):
# The source made the active and inactive calls. The calls are words filed in the database; no cut-off is given here.
# Columns and labels:
# HepG2 = experiment: Upregulation of ApoA1 expression in human HepG2 cells assessed as concentration required to increase 70% of luciferase activity after 18 hrs by luciferase reporter gene assay; format: functional
# THP-1 = experiment: Antiinflammatory activity in human THP1 cells; format: functional, cell-based
# PBMC [1] = experiment: Inhibition of LPS-stimulated IL-6 production in human PBMC; format: functional, cell-based
# PBMC [2] = experiment: Inhibition of LPS-stimulated TNFalpha production in human PBMC; format: functional, cell-based
# Cytochrome P450 3A4 = Cytochrome P450 3A4 (Homo sapiens, UniProt P08684); experiment: Inhibition of CYP3A4; format: ADME
# Cytochrome P450 2C9 = Cytochrome P450 2C9 (Homo sapiens, UniProt P11712); experiment: Inhibition of CYP2C9; format: ADME
# Mus musculus [3] = experiment: Antiinflammatory activity in LPS-stimulated acute inflammation BALB/c mouse model assessed as inhibition of plasma PAI-1 level at 10 mg/kg, po administered 2 hrs before LPS challenge; format: functional
# Mus musculus [4] = experiment: Antiinflammatory activity in LPS-stimulated acute inflammation BALB/c mouse model assessed as inhibition of plasma IL-6 level at 10 mg/kg, po administered 2 hrs before LPS challenge; format: functional
# Mus musculus [5] = experiment: Antiinflammatory activity in LPS-stimulated acute inflammation BALB/c mouse model assessed as inhibition of plasma TNF-alpha level at 10 mg/kg, po administered 2 hrs before LPS challenge; format: functional
# Mus musculus [6] = experiment: Antiinflammatory activity in LPS-stimulated acute inflammation BALB/c mouse model assessed as inhibition of plasma MCP-1 level at 10 mg/kg, po administered 2 hrs before LPS challenge; format: functional
# Rattus norvegicus = species: Rattus norvegicus; experiment: Dose normalized AUC (0 to infinity ) in CD rat; format: ADME, organism-based; details: in vivo
# Hepatocyte [7] = experiment: Bioactivation in rat hepatocytes assessed as glutathione trapping; format: cell-based
# Hepatocyte [8] = experiment: Bioactivation in human hepatocytes assessed as compound epoxidation; format: cell-based
# Hepatocyte [9] = experiment: Bioactivation in human hepatocytes assessed as glutathione trapping; format: cell-based
# [10] = Half life in CD rat; format: ADME, organism-based; details: CD, in vivo
# Salmonella typhimurium = experiment: Mutagenic activity in Salmonella typhimurium by Ames assay; format: toxicity, organism-based; details: salmonella enterica subsp. enterica serovar typhimurium
# [11] = Volume of distribution at steady state in CD rat; format: ADME, organism-based; details: in vivo, read-out: Vdss
# [12] = Oral bioavailability in CD rat; format: ADME, organism-based; details: in vivo
# [13] = Clearance in iv dosed CD rat blood after 1 hr; format: ADME, organism-based; details: whole blood
# Hepatocyte [14] = experiment: Bioactivation in rat hepatocytes assessed as compound epoxidation; format: cell-based
# Sequence of Cytochrome P450 2C9 (P11712 whole entry): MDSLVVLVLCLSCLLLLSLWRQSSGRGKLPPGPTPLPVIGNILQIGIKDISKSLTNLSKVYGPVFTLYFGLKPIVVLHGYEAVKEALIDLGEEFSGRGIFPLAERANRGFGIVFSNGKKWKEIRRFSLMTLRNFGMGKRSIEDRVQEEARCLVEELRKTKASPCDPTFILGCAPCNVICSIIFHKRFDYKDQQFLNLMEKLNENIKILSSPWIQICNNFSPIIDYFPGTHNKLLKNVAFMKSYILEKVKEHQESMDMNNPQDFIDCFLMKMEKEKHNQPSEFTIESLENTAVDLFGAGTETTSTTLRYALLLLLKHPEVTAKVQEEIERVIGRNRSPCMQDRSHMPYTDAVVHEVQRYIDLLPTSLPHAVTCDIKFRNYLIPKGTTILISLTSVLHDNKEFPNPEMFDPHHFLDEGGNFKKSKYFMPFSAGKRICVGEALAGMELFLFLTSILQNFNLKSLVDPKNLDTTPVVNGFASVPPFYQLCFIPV
# Sequence of Cytochrome P450 3A4 (P08684 whole entry): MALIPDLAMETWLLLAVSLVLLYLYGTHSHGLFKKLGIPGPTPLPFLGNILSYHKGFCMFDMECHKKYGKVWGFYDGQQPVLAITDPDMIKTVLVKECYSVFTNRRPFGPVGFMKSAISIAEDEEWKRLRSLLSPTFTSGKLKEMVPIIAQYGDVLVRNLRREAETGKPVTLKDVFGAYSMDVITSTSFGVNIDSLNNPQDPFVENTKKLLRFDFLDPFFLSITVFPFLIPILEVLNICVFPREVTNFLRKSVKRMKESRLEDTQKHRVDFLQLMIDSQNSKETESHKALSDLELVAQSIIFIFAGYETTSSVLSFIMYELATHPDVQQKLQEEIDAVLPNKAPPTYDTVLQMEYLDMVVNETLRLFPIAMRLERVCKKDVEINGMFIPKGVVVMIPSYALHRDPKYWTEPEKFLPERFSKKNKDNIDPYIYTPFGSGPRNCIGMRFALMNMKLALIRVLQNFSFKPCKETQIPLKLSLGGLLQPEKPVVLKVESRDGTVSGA
SMILES,EC170 (HepG2),Activity (THP-1),Activity (PBMC [1]),Activity (PBMC [2]),IC50 (Cytochrome P450 3A4),IC50 (Cytochrome P450 2C9),other results
Cc1noc(C)c1-c1ccc2c(Nc3ccccc3)c(C(=O)NCc3ccccc3)cnc2c1,1.44 µM,Active,Active,Active,–,–,–
COc1cc2c(Nc3ccccc3C(=O)c3ccccn3)c(C(N)=O)cnc2cc1-c1c(C)noc1C,0.2 µM,Active,Active,Active,3.1 µM,9.9 µM,–
Cc1ccccc1Nc1c(C(N)=O)cnc2cc(-c3c(C)noc3C)ccc12,0.44 µM,Active,Active,Active,–,–,–
COc1cc2c(cc1-c1c(C)noc1C)ncc1[nH]c(=O)n(-c3ccccc3F)c12,0.76 µM,Active,Active,Active,–,–,–
COc1ccccc1Nc1c(C(N)=O)cnc2cc(-c3c(C)noc3C)ccc12,0.39 µM,Active,Active,Active,–,–,–
COc1cc2c(Nc3ccccc3C(=O)N3CCCCC3)c(C(N)=O)cnc2cc1-c1c(C)noc1C,0.13 µM,Active,Active,Active,1.8 µM,8.5 µM,–
Cc1noc(C)c1-c1ccc2c(Nc3ccccc3)c(C(=O)N(C)C)cnc2c1,7.08 µM,Active,Active,Active,–,–,–
COc1cc2c(Nc3ccccc3CCN3CCOCC3)c(C(N)=O)cnc2cc1-c1c(C)noc1C,0.09 µM,Active,Active,Active,1.9 µM,2.2 µM,–
COc1cc2c(NCc3ccccn3)c(C(N)=O)cnc2cc1-c1c(C)noc1C,2.57 µM,Active,Active,Active,–,–,–
C[C@]12C=CC(=O)C=C1CC[C@@H]1[C@@H]2[C@@H](O)C[C@@]2(C)[C@H]1CC[C@]2(O)C(=O)CO [PREDNISOLONE],–,–,–,–,–,–,inhibition in vivo at 10 mg/kg (Mus musculus [3]): 43%; inhibition in vivo at 10 mg/kg (Mus musculus [4]): 59%; inhibition in vivo at 10 mg/kg (Mus musculus [5]): 94%; inhibition in vivo at 10 mg/kg (Mus musculus [6]): 49%
Cc1noc(C)c1-c1ccc2c(Nc3ccccc3)ccnc2c1,4.27 µM,Active,Active,Active,–,–,–
COc1cc2c(Nc3ccccc3N3CCOCC3)c(C(N)=O)cnc2cc1-c1c(C)noc1C,0.09 µM,Active,Active,Active,1.5 µM,5.1 µM,–
COc1cc2c(Nc3ccccc3F)c(C(N)=O)cnc2cc1-c1c(C)noc1C,0.3 µM,Active,Active,Active,4.7 µM,0.6 µM,–
Cc1noc(C)c1-c1ccc2c(Nc3ccccc3C(C)(C)C)c(C(=O)O)cnc2c1C,1.05 µM,Active,Active,Active,–,–,–
COc1cc2c(Nc3ccccc3C(C)(C)C)c(C(=O)O)cnc2cc1-c1c(C)noc1C,0.28 µM,Active,Active,Active,–,–,–
Cc1noc(C)c1-c1ccc2c(Nc3ccccc3C(C)(C)C)c(C(N)=O)cnc2c1,0.63 µM,Active,Active,Active,2 µM,0.7 µM,–
COc1cc2c(cc1-c1c(C)noc1C)ncc1[nH]c(=O)n(Cc3ccccn3)c12,–,Active,Active,Active,12.9 µM,–,–
Cc1cc2c(Nc3ccccc3C(C)(C)C)c(C(=O)O)cnc2cc1-c1c(C)noc1C,1.99 µM,Active,Active,Active,–,–,–
COc1cc2c(cc1-c1c(C)noc1C)ncc1[nH]c(=O)n(-c3ccccc3C(C)(C)C)c12,0.05 µM,Active,Active,Active,1.7 µM,0.9 µM,–

SMILES,EC170 (HepG2),Activity (THP-1),Activity (PBMC [1]),Activity (PBMC [2]),IC50 (Cytochrome P450 3A4),IC50 (Cytochrome P450 2C9),other results
COc1cc2c(cc1-c1c(C)noc1C)ncc1[nH]c(=O)n([C@@H](C)c3ccccc3)c12,0.47 µM,Active,Active,Active,–,–,–
COc1cc2c(NCc3ccccc3)c(C(N)=O)cnc2cc1-c1c(C)noc1C,1.07 µM,Active,Active,Active,–,–,–
COc1cc2c(cc1-c1c(C)noc1C)ncc1[nH]c(=O)n([C@H](C)c3ccccc3)c12,0.01 µM,Active,Active,Active,1.5 µM,1 µM,–
Cc1noc(C)c1-c1ccc2c(Nc3ccccc3)c(C(N)=O)cnc2c1,0.5 µM,Active,Active,Active,17 µM,2.1 µM,–
COc1cc2c(Nc3ccccc3C(C)(C)C)c(C(N)=O)cnc2cc1-c1c(C)noc1C,0.13 µM,Active,Active,Active,1.9 µM,1.2 µM,–
CC[C@H](c1ccccc1)n1c(=O)[nH]c2cnc3cc(-c4c(C)noc4C)c(OC)cc3c21,0.03 µM,Active,Active,Active,2.4 µM,2.4 µM,–
Cc1noc(C)c1-c1ccc2c(Nc3ccccc3Cl)c(C(N)=O)cnc2c1,1 µM,Active,Active,Active,–,–,–
COc1cc2c(Nc3cccc4cccnc34)c(C(N)=O)cnc2cc1-c1c(C)noc1C,0.22 µM,Active,Active,Active,3.9 µM,2.8 µM,AUC/dose (Rattus norvegicus): 12 kg·min/L; Drug metabolism (Hepatocyte [7]): Active; Drug metabolism (Hepatocyte [8]): Active; Drug metabolism (Hepatocyte [9]): Active; half-life [10]: 1.1 h; Activity (Salmonella typhimurium): Toxic; Vd [11]: 4 L/kg; bioavailability [12]: 59%; clearance [13]: 50 mL/min/kg; Drug metabolism (Hepatocyte [14]): Active
Cc1cccc(Nc2c(C(N)=O)cnc3cc(-c4c(C)noc4C)ccc23)c1,0.6 µM,Active,Active,Active,–,–,–
COc1cc2c(cc1-c1c(C)noc1C)ncc1[nH]c(=O)n(Cc3ccccc3)c12,0.06 µM,Active,Active,Active,–,1.2 µM,–
Cc1noc(C)c1-c1ccc2c(Nc3ccccc3F)c(C(N)=O)cnc2c1,0.5 µM,Active,Active,Active,–,–,–
Cc1ccc(Nc2c(C(N)=O)cnc3cc(-c4c(C)noc4C)ccc23)cc1,1.05 µM,Active,Active,Active,–,–,–
Cc1noc(C)c1-c1ccc2c(Nc3ccccc3C#N)c(C(N)=O)cnc2c1,1.02 µM,Active,Active,Active,–,–,–
COc1cc2c(NC3CCCCC3)c(C(N)=O)cnc2cc1-c1c(C)noc1C,0.45 µM,Active,Active,Active,–,–,–
Cc1noc(C)c1-c1ccc2c(Nc3ccccc3C(C)(C)C)c(C(=O)O)cnc2c1,0.32 µM,Active,Active,Active,13 µM,10 µM,–
CCNC(=O)C[C@@H]1N=C(c2ccc(Cl)cc2)c2cc(OC)ccc2-n2c(C)nnc21 [MOLIBRESIB],0.2 µM,–,–,–,–,–,–
COc1cc2c(cc1-c1c(C)noc1C)ncc1[nH]c(=O)n(-c3ccccc3OC(F)(F)F)c12,0.09 µM,Active,Active,Active,–,2.3 µM,–
COc1cc2c(cc1-c1c(C)noc1C)ncc1[nH]c(=O)n(C(C)c3ccccc3)c12 (racemic),0.03 µM,Active,Active,Active,2 µM,1.3 µM,–
Cc1noc(C)c1-c1ccc2c(Nc3ccccc3)c(C(=O)O)cnc2c1,1.74 µM,Active,Active,Active,> 33 µM,> 33 µM,–
